Data reported in ChEMBL document CHEMBL3608208, “Synthesis, antibacterial and QSAR evaluation of 5-oxo and 5-thio derivatives of 1,4-disubstituted tetrazoles” (2015).
Converted amounts (≈) assume the structure as drawn.

What was measured:
Assay type in all cases: functional
[1] = test system: Staphylococcus aureus; test: Antimicrobial activity against Staphylococcus aureus after 24 hrs by well-diffusion assay
[2] = test system: Streptococcus sp.; test: Antimicrobial activity against Streptococcus spp. after 24 hrs by well-diffusion assay
[3] = test system: Bacillus subtilis; test: Antimicrobial activity against Bacillus subtilis after 24 hrs by well-diffusion assay
[4] = test system: Escherichia coli; test: Antimicrobial activity against Escherichia coli after 24 hrs by well-diffusion assay
[5] = test system: Klebsiella pneumoniae; test: Antimicrobial activity against Klebsiella pneumoniae after 24 hrs by well-diffusion assay
[6] = test system: Proteus mirabilis; test: Antimicrobial activity against Proteus mirabilis after 24 hrs by well-diffusion assay
[7] = test system: Pseudomonas aeruginosa; test: Antimicrobial activity against Pseudomonas aeruginosa after 24 hrs by well-diffusion assay
[8] = test system: Escherichia coli; test: Antimicrobial activity against Escherichia coli after 24 hrs by microbroth dilution assay
[9] = test system: Staphylococcus aureus; test: Antimicrobial activity against Staphylococcus aureus after 24 hrs by microbroth dilution assay

Structure (SMILES)	MIC [8] [µg/mL]	MIC [9] [µg/mL]	inhibition zone (IZ) [1] [mm]	inhibition zone (IZ) [2] [mm]	inhibition zone (IZ) [3] [mm]	inhibition zone (IZ) [4] [mm]	inhibition zone (IZ) [5] [mm]	inhibition zone (IZ) [6] [mm]	inhibition zone (IZ) [7] [mm]
Sc1nnnn1-c1ccccc1	1.77 (≈ 9.91 µM)	1.76 (≈ 9.9 µM)	18	12	16	14	8	19	11
c1ccc(CSc2nnnn2-c2ccccc2)cc1			0	0	0	0	0	0	0
O=c1n(Cc2ccccc2)nnn1-c1ccccc1			0	0	0	0	0	7	0
O=c1n(CCCCCCn2nnn(-c3ccccc3)c2=O)nnn1-c1ccccc1			0	0	0	0	0	0	0
c1ccc(-n2nnnc2SCCCCCCSc2nnnn2-c2ccccc2)cc1			0	0	0	0	0	0	0
CC(=O)OCCn1nnn(-c2ccccc2)c1=O	37 (≈ 149 µM)	37 (≈ 149 µM)	0	0	9	12	0	15	0
O=c1n(CCOCc2ccccc2)nnn1-c1ccccc1			0	0	0	0	0	20	0
OCn1nnn(-c2ccccc2)c1=S	0.58 (≈ 2.79 µM)	1.76 (≈ 8.45 µM)	32	42	30	31	19	26	23
CC(=O)OCn1nnn(-c2ccccc2)c1=O	13.9 (≈ 59.3 µM)	2.66 (≈ 11.4 µM)	9	10	14	0	0	11	0
CC(=O)OCn1nnn(-c2ccccc2)c1=S	13.9 (≈ 55.5 µM)	4.62 (≈ 18.5 µM)	10	0	12	0	0	15	0

More lines, main results first:

MIC [8] [µg/mL]	MIC [9] [µg/mL]	Structure (SMILES)	inhibition zone (IZ) [1] [mm]	inhibition zone (IZ) [2] [mm]	inhibition zone (IZ) [3] [mm]	inhibition zone (IZ) [4] [mm]	inhibition zone (IZ) [5] [mm]	inhibition zone (IZ) [6] [mm]	inhibition zone (IZ) [7] [mm]
15.9 (≈ 60 µM)	5.29 (≈ 20 µM)	CCOC(=O)CSc1nnnn1-c1ccccc1	9	13	13	0	0	14	0
1.37 (≈ 4.44 µM)	1.37 (≈ 4.44 µM)	O=C(O)CCC(=O)OCn1nnn(-c2ccccc2)c1=S	24	19	12	11	16	11	17
8 (≈ 38.8 µM)	5.29 (≈ 25.7 µM)	O=c1n(CCO)nnn1-c1ccccc1	0	0	12	11	13	12	0
1.76 (≈ 9.16 µM)	0.19 (≈ 0.989 µM)	O=c1n(CO)nnn1-c1ccccc1	38	42	33	30	22	34	24
1.54 (≈ 9.52 µM)	1.54 (≈ 9.52 µM)	O=c1[nH]nnn1-c1ccccc1	12	11	14	10	9	0	0
